# Tests used:
# [1] = system: bronchial epithelial cells; assay: Uptake of complexed DNA plasmid by cells (confocal microscope); assay type: cell-based; settings: DNA plasmid complexed with the amphiphile, compared to non-complexed DNA
# Protocol: Purified Derivative 4 was used to complex with a DNA plasmid (purchased from Sigma Chemicals, 5 ng/microliter, stained in FITC; ULSIS Alexa Fluor® 488 Nucleic acid labeling kit) or rhodamine. The complexation was achieved by mixing the amphiphilic Derivative 4 (200 microliters containing […] of the compound) with […] of the DNA sample and letting it shake gently for a short period of time. The mixture is not sonicated to prevent vesicle formation in which the DNA is encapsulated. The sample was then incubated in a culture containing bronchial epithelial cells.
# [2] = Vesicle size by TEM; assay type: physicochemical; parameters: unit not given here; settings: bilayer vesicles
# Protocol: Two main methods were used to prepare the vesicles: In method (1), 100-200 μl of the amphiphilic derivative dissolved in methanol was injected into 2-4 ml of an aqueous solution which contained the compound to be encapsulated. The mixture was sonicated in a bath sonicator (Branson 2510) for a short (1,2,5,10 min) or long (60 min) period, depending on the desired vesicle size (dozen or hundred nanometer) and uniformity. In method (2), the amphiphilic derivative dissolved in methanol (250-1000 μl) was added to a 50-ml round-bottom flask, the solvent was removed under reduced pressure by a rotary evaporator and a thin oily film was formed on the flask bottom. An aqueous solution containing the compound desired to encapsulate (1-4 ml) was added to the flask and the mixture was sonicated in a bath sonicator for 1-5 min at 60° C.
# TEM (transmission electron microscopy) experiments were carried out using negative staining technique, employing saturated uranyl acetate solution (after centrifuge). The grid was immersed in the vesicle solution for 1.5 minutes and then was stained in the uranyl acetate solution for 1.5 min. The grid (300 mesh copper Formvar/carbon) was then dried at room temperature on filter paper. […]
# Derivative 10 was made into vesicles according to Example 41. […] The vesicles were purified by filtration and the presence of radioactivity in the purified sample indicated encapsulation.
# [3] = system: bronchial epithelial cells; assay: Uptake of vesicle-encapsulated 14C-methylated albumin by cells (radioactivity); assay type: cell-based; settings: 14C-methylated albumin encapsulated in vesicles, compared with non-encapsulated albumin
# Protocol: Derivative 10 was made into vesicles according to Example 41. […] The same method was used to encapsulate ^14C-methylated albumin (purchased from Sigma Chemicals) by adding 0.2 mg of the tagged albumin. The vesicles were purified by filtration and the presence of radioactivity in the purified sample indicated encapsulation.
SMILES,uptake of DNA by the cells [1],vesicle size [2],uptake of the albumin by the cells [3]
CCCCCC(OC(=O)CN(CCCN)CCCCN)C(O)CCCCC(=O)OC (stereo not drawn) [Derivative 4],significantly greater uptake of DNA,–,–
CCCCCCCCCCCC[N+](C)(C)CC(=O)OC(CCCCC)C(O)C/C=C/CC(=O)NCCNC(=O)C/C=C/CC(O)C(CCCCC)OC(=O)C[N+](C)(C)CCCCCCCCCCCC (stereo not drawn) [Derivative 10],–,350,significantly greater uptake of the albumin

# Source: US7939562B2, “Amphiphilic derivatives for the production of vesicles, micelles and complexants, and precursors thereof” (Ben-Gurion University of The Negev Research and Development …, priority 2001, dated 2011)
